According to the NIST ThermoML archive (doi:10.1016/j.jct.2016.09.041):

Settings: for molar entropy: 101.33 kPa, Small (less than 1 g) adiabatic calorimetry

N[C@@H](Cc1c[nH]c2ccccc12)C(=O)O [L-tryptophan]
molar entropy [J/K/mol]
Settings | Crystal | Crystal 1
5 K | 0.2245 | –
10 K | 1.663 | –
15 K | 4.49 | –
20 K | 8.314 | –
25 K | 12.64 | –
30 K | 17.46 | –
35 K | 22.45 | –
40 K | 27.52 | –
45 K | 32.59 | –
50 K | 37.66 | –
60 K | 47.73 | –
70 K | 57.7 | –
79.2 K | 66.6 | 66.6
80 K | – | 67.26
90 K | – | 76.16
100 K | – | 84.89
110 K | – | 93.54
120 K | – | 102.02
130 K | – | 110.25
140 K | – | 118.48
150 K | – | 126.63
160 K | – | 134.61
170 K | – | 142.59
180 K | – | 150.49
190 K | – | 158.39
200 K | – | 166.21
210 K | – | 174.02
220 K | – | 181.75
230 K | – | 189.49
240 K | – | 197.22
250 K | – | 204.87
260 K | – | 212.6
270 K | – | 220.33
280 K | – | 228.07
290 K | – | 235.72
298.15 K | – | 242.03
300 K | – | 243.45
310 K | – | 251.1
320 K | – | 258.75
330 K | – | 266.31
340 K | – | 273.88
350 K | – | 281.53
360 K | – | 289.09
370 K | – | 296.66

Settings | Triple point temperature [K]
Crystal 2, Adiabatic calorimetry | 79.2
